Experimental data from the RepoRT retention time repository (doi:10.1038/s41586-021-03707-9).

Tests used:
[1] = Waters ACQUITY UPLC BEH C18, 100 × 2.1 mm, 1.7 µm, 40 °C, 0.28 mL/min, estimated dead time 0.63 min; A: water + 6.5 mM ammonium hydroxide; B: methanol + 6.5 mM ammonium hydroxide; gradient (min/%B) 0/0.5 4/70 4.5/98 5.4/98; settings: stereoisomer not certain
[2] = RP, Waters ACQUITY UPLC HSS C18, 100 × 2.1 mm, 1.7 µm, 40 °C, 0.35 mL/min, estimated dead time 0.63 min; A: water + 0.1% formic acid; B: methanol + 0.1% formic acid; gradient (min/%B) 0/0.5 4/70 4.5/98 5.4/98; settings: stereoisomer not certain

LC retention time [1] [min] | LC retention time [2] [min] | SMILES
0.866 |  | O=S(=O)(O)CCO
2.77 |  | Cc1ccc(OC2OC(C(=O)O)C(O)C(O)C2O)cc1 (stereo not given)
3.07 |  | NC(N)=Nc1nc(CSCCC(N)=NS(N)(=O)=O)cs1
0.764 |  | NC(=O)CCC(N)C(=O)O (stereo not given)
1.1 |  | O=C(O)Cc1ccc(O)c(O)c1
1.15 |  | CC(=O)NC(CS)C(=O)O (stereo not given)
3.95 |  | O=C(O)CCCCC1CCSS1 (stereo not given)
2.95 |  | CC(C)=CC(=O)SCCNC(=O)CCNC(=O)C(O)C(C)(C)COP(=O)(O)OP(=O)(O)OCC1OC(n2cnc3c(N)ncnc32)C(O)C1OP(=O)(O)O (stereo not given)
1.7 |  | O=C(O)CNC(=O)c1ccco1
2.9 |  | O=C(O)c1c(O)cccc1O
1.02 |  | CCCC(N)C(=O)O (stereo not given)
0.809 |  | C[N+](C)(C)CC(=O)[O-]
0.858 |  | NC(=O)c1ncn(C2OC(CO)C(O)C2O)n1 (stereo not given)
0.9 |  | NCCC(=O)NC(Cc1cnc[nH]1)C(=O)O (stereo not given)
1.28 |  | NC(CO)Cc1cnc[nH]1 (stereo not given)
2.28 |  | CC=CC=CC(=O)O
5.27 |  | CC(C)Cc1ccc(C(C)C(=O)O)cc1 (stereo not given)
4.67 |  | [2H]C([2H])([2H])C([2H])([2H])C([2H])([2H])C([2H])([2H])C([2H])([2H])C([2H])([2H])C([2H])([2H])C(=O)O
1.91 |  | O=C(O)CNC(=O)c1cccc(O)c1
0.923 |  | Nc1nc2c(ncn2C2CC(O)C(COP(=O)(O)O)O2)c(=O)[nH]1 (stereo not given)
4.14 |  | COC(=O)Cc1ccc(O)cc1
0.761 |  | NC(CO)C(=O)O (stereo not given)

LC retention time [1] [min] | LC retention time [2] [min] | SMILES
2.04 |  | CC(=O)C1C(=O)C=C(C)OC1=O (stereo not given)
0.892 |  | OCC1OC(OCC2OC(O)(CO)C(O)C2O)C(O)C(O)C1O (stereo not given)
1.61 |  | CC=C(C)C(=O)O
1.23 |  | C[N+](C)(C)CC(O)CC(=O)[O-] (stereo not given)
0.762 |  | NC(CCO)C(=O)O (stereo not given)
1.2 |  | CC(C)(O)CC(=O)O
0.946 |  | NC(CS)C(=O)NCC(=O)O (stereo not given)
3.86 |  | CNC(=C[N+](=O)[O-])NCCSCc1csc(CN(C)C)n1
2.37 |  | NC(Cc1ccccc1)C(=O)O (stereo not given)
3.14 |  | O=C(C=Cc1ccc(O)c(O)c1)OC(Cc1ccc(O)c(O)c1)C(=O)O (stereo not given)
0.929 |  | NC(CCSSCCC(N)C(=O)O)C(=O)O (stereo not given)
0.832 |  | O=C(O)c1cc(O)cc(O)c1
0.794 |  | NCCCCC(N)C(=O)O (stereo not given)
0.848 |  | COc1cc(CC(=O)O)ccc1OS(=O)(=O)O
0.837 |  | C[N+](C)(C)CCCCC(N)C(=O)[O-] (stereo not given)
0.901 |  | NC(=O)C1=CN(C2OC(COP(=O)(O)OP(=O)(O)OCC3OC(n4cnc5c(N)ncnc54)C(O)C3O)C(O)C2O)C=CC1 (stereo not given)
0.778 |  | CNCC(=O)O
3 |  | O=C(O)C(=O)Cc1c[nH]c2ccccc12
0.857 |  | CCC(CO)C(=O)O (stereo not given)
2.21 |  | Cc1ccccc1C(=O)O
4.82 |  | CCCC(=O)Nc1ccc(OCC(O)CNC(C)C)c(C(C)=O)c1 (stereo not given)
2.68 |  | CC([NH3+])C(=O)NCC(=O)[O-] (stereo not given)

LC retention time [1] [min] | LC retention time [2] [min] | SMILES
0.798 |  | CC(CO)C(=O)O (stereo not given)
0.945 |  | OCCNCCO
0.917 |  | Nc1ncnc2c1ncn2C1OC(COP(=O)(O)OP(=O)(O)OC2OC(CO)C(O)C(O)C2O)C(O)C1O (stereo not given)
2.9 |  | Cc1ccc(OS(=O)(=O)O)cc1
0.797 |  | O=C(O)c1ccc(O)c(O)c1
2.24 |  | O=C(O)CCc1cccc(O)c1
1.79 |  | O=C(O)Cc1cccc(O)c1
0.869 |  | CC=CC(=O)O
 | 2.5 | Cn1cnc2c1c(=O)[nH]c(=O)n2C
 | 1.88 | O=C(O)c1cc(O)c(O)c(O)c1
 | 1.72 | CN1C(=O)CCC1c1cccnc1 (stereo not given)
 | 4.08 | O=C(O)c1c[nH]c2ccccc12
 | 0.759 | NC(COP(=O)(O)O)C(=O)O (stereo not given)
 | 0.783 | O=P(O)(O)OCC1OC(O)C(O)C(O)C1O (stereo not given)
 | 0.844 | CN(C)C(=N)N=C(N)N
 | 1.89 | O=C(O)CCCC(O)C(=O)O (stereo not given)
 | 2.98 | O=C(O)C1OC(Oc2c[nH]c3ccccc23)C(O)C(O)C1O (stereo not given)
 | 3.02 | CC(CC(=O)O)CC(=O)O
 | 4.66 | CCCC(NC(C)C(=O)N1C(C(=O)O)CC2CCCCC21)C(=O)OCC (stereo not given)
 | 3.36 | CCN(Cc1ccncc1)C(=O)C(CO)c1ccccc1 (stereo not given)
 | 0.762 | Cc1ncc(C[n+]2csc(CCOP(=O)(O)O)c2C)c(N)n1
 | 4.38 | O=C(O)C=Cc1cccc(O)c1

More lines, now with the values behind:

SMILES | LC retention time [1] [min] | LC retention time [2] [min]
O=C(CO)C(O)C(O)C(O)CO (stereo not given) | 0.816 | 
OCc1cccc(O)c1 | 2.93 | 
Cc1ccc(O)c([N+](=O)[O-])c1 | 4.33 | 
O=c1[nH]cc(CO)c(=O)[nH]1 | 0.855 | 
COc1ccc2[nH]cc(CCN)c2c1 | 3.64 | 
NCC1CCC(C(=O)O)CC1 (stereo not given) | 0.843 | 
O=C(O)CNC(=O)c1ccccc1O | 2.48 | 
CC1=C(CCC(=O)O)c2cc3nc(cc4[nH]c(cc5[nH]c(cc1n2)c(C)c5CCC(=O)O)c(CCC(=O)O)c4C)C(CCC(=O)O)=C3C | 3.64 | 
CCCCCCCC(=O)O | 4.74 | 
CCCCC(CC)CCC(=O)O (stereo not given) | 5.33 | 
OCC1OC(Oc2ccc(O)cc2)C(O)C(O)C1O (stereo not given) | 1.81 | 
O=S(=O)(O)c1cccc2cccc(Nc3ccccc3)c12 | 5.12 | 
O=CCc1c[nH]c2ccccc12 | 4.4 | 
O=C(O)CCCCCCCCCCCO | 4.86 | 
CC(=O)Oc1cccc(O)c1 | 3.06 | 
O=C1OC(C(O)CO)C(=O)C1=O (stereo not given) | 0.862 | 
CCC(C(=O)O)c1ccccc1 (stereo not given) | 3.74 | 
O=Cc1cccc(O)c1 | 3.55 | 
O=CC(O)C1OC(=O)C(O)C1O (stereo not given) | 0.884 | 
O=C(O)C(O)c1cccc(O)c1 (stereo not given) | 0.848 | 
CC(C)CC(=O)C(=O)O | 2.48 | 
CCC(O)C(=O)O (stereo not given) | 0.842 | 
OCC1OC(OCC2OC(OCC3OC(OC4(CO)OC(CO)C(O)C4O)C(O)C(O)C3O)C(O)C(O)C2O)C(O)C(O)C1O (stereo not given) | 0.928 | 

SMILES | LC retention time [1] [min] | LC retention time [2] [min]
O=c1[nH]c(=O)c2[nH]cnc2[nH]1 | 0.977 | 
O=Cc1c[nH]c2ccccc12 | 4.19 | 
CN=C(NC#N)NCCSCc1nc[nH]c1C | 3.63 | 
NCCC(=O)O | 0.761 | 
Cc1cc(C(=O)O)ccc1O | 3.54 | 
NC1C(O)OC(CO)C(O)C1O (stereo not given) | 0.802 | 
CCC(C)C(O)C(=O)O (stereo not given) | 1.97 | 
NCC(N)C(=O)O (stereo not given) | 0.768 | 
O=C(CCc1ccc(O)cc1)c1c(O)cc(O)cc1OC1OC(CO)C(O)C(O)C1O (stereo not given) | 3.5 | 
Cc1cn(C2CC(O)C(COP(=O)(O)OP(=O)(O)OC3OC(CO)C(O)C(O)C3O)O2)c(=O)[nH]c1=O (stereo not given) | 0.923 | 
CC(=O)CCC(=O)O | 0.87 | 
O=C(O)C1CCC(O)CC1 (stereo not given) | 0.776 | 
Oc1ccccc1O | 2.93 | 
O=C(O)C(=O)c1ccccc1 | 2.26 | 
O=c1[nH]c(=O)c2[nH]c(=O)[nH]c2[nH]1 | 0.828 | 
CC(C)CCC(=O)O | 3.06 | 
COc1cc(C=O)ccc1O | 2.51 | 
Cc1cccc(O)c1O | 4 | 
O=C(O)CCc1ccccc1O | 2.93 | 
CCCC(CCC)C(=O)O | 4.23 | 
COC1OC(CO)C(O)C(O)C1O (stereo not given) | 0.979 | 
CC(C)C(N)C(=O)O (stereo not given) | 1 | 
O=C(O)C(O)c1ccccc1 (stereo not given) | 1.59 | 

SMILES | LC retention time [1] [min] | LC retention time [2] [min]
Oc1cccc2cccnc12 | 4.19 | 
CCCCC(=O)N(Cc1ccc(-c2ccccc2-c2nn[nH]n2)cc1)C(C(=O)O)C(C)C (stereo not given) | 4.48 | 
CC(=O)S | 2.35 | 
O=CC(O)C(O)C(O)CO (stereo not given) | 0.839 | 
CC(C)(COP(=O)(O)OP(=O)(O)OCC1OC(n2cnc3c(N)ncnc32)C(O)C1OP(=O)(O)O)C(O)C(=O)NCCC(=O)NCCS (stereo not given) | 0.853 | 
CC(CCC(=O)O)C1CCC2C3C(O)CC4CC(O)CCC4(C)C3CC(O)C12C (stereo not given) | 4.99 | 
O=C(O)c1cccc(O)c1O | 1.56 | 
Nc1ncnc2c1ncn2C1OC(COP(=O)(O)OP(=O)(O)OCC2OC(O)C(O)C2O)C(O)C1O (stereo not given) | 0.924 | 
NC(N)=NCCCC(N)C(=O)O (stereo not given) | 0.845 | 
O=C(O)Cc1ccccc1O | 2.46 | 
NC(Cc1cnc[nH]1)C(=O)O (stereo not given) | 0.849 | 
O=C(O)C(O)Cc1ccccc1 (stereo not given) |  | 3.7
COc1ccc(C=O)cc1 |  | 0.897
N#CCc1c[nH]c2ccccc12 | 4.53 | 
CN=C(N)N |  | 0.776
CC(C(=O)O)C(=O)O |  | 1.87
CC1NCCc2cc(O)c(O)cc21 (stereo not given) |  | 1.61
Cc1occc(=O)c1O |  | 2.77
Nc1ccn(C2CC(O)C(COP(=O)(O)O)O2)c(=O)n1 (stereo not given) |  | 1.1
O=c1ccc2ccccc2o1 |  | 4.19
O=P(O)(O)OC(CO)CO |  | 0.815
O=C1CCNC(=O)N1 |  | 1.16
CNCC(O)c1ccc(O)c(O)c1 (stereo not given) |  | 0.911
